For 22 molecules, inhibition in vivo results are on record in patent US5039706A, “Antiinflammatory PLA2 inhibitors” (Du Pont Merck Pharmaceutical Company, priority 1989, dated 1991).

The assay relates to inflammation induced by tetradecanoyl phorbol acetate (TPA). Kind of assay: TPA inflammation inhibition test (mouse ear edema). The class given is in vivo, mice. On the set-up: dose or concentration left out as unconfirmed. The note with it: topical, 4 h, TPA to right ear, edema measured four hours later, read-out: % Inhibition of Control Swelling. The source says:
One such model is the inflammation induced by tetradecanoyl phorbol acetate (TPA), modified from the method of Kuehl et al., Nature, 1977, 265, 170; and Van Arman, Clin. Pharmacol. Ther., 1974, 16, 900. The TPA model mimics many of the inflammatory changes which occur in human skin diseases such as psoriasis, since elevated levels of inflammatory arachidonic acid metabolites are found and an influx of polymorphonuclear leukocytes is observed. The test procedure used to evaluate the compounds of Formula (I) is as follows: the test compound […] is applied to both ears of mice in an appropriate vehicle, such as acetone, and then the inflammatory stimulus (TPA) is applied to the right ear. Four hours later, the edema is measured by removing standard size discs from the ears using a biopsy punch. A control group of animals receives TPA in vehicle applied to the right ear, and vehicle alone to the left ear. The weights of the ear discs are determined, and the suppression of swelling observed in animals treated with the test compound is determined.

Counter-ions that a name gives are not always drawn.

Consider `CC1(C)C2CCC(CNCCC(N)c3ccc(F)cc3)C1C2` (single isomer, unassigned) [Example 11, 4-Fluoro-α-(2-[(1α,2α,5α-7,7-dimethylbicyclo[3.1.1]-heptanyl-2-methyl)amino]ethyl)benzenemethanamine Dihydrochloride], for which the inhibition in vivo amounted to 45%.
Turning to `CC(C)c1ccc2c(c1)CCC1C(C)(CNCCC(N)c3ccc(F)cc3)CCCC21C` (stereo not drawn) [Example 1, α-(2-[1,4a-Dimethyl-7-(2-propyl)-1,2,3,4,4a,9,10,10a-octahydro-1-phenanthrenylmethylamino]ethyl)-4-fluorobenzenemethanamine Dihydrochloride], the inhibition in vivo was 89%.
As to `CCCCCCCCSCCCC(N)c1ccc(F)cc1` (stereo not drawn) [Example 5, 4-Fluoro-α-[3-(octylthio)propyl]benzenemethanamine Hydrochloride], the inhibition in vivo was found to be 46%.
On to `Cc1ccc(SCCCC(N)c2ccc(F)cc2)cc1` (stereo not drawn) [Example 7, 4-Fluoro-α-[3-(4-methylphenylthio)propyl]benzenemethanamine Hydrochloride], for which the inhibition in vivo worked out at 22%.
For the molecule `CC(C)c1ccc2c(c1)CCC1C(C)(CNCCCC(N)c3ccc(F)cc3)CCCC21C` (stereo not drawn) [Example 8, 4-Fluoro-α-(4-[1,4a-dimethyl-7-(2-propyl)-1,2,3,4,4a,9,10,10a-octahydro-1-phenanthrenylmethylamino]propyl)-benzenemethanamine Dihydrochloride], the inhibition in vivo is 50%.
On to `NC(CCCSc1ccncc1)c1ccc(F)cc1` (stereo not drawn) [Example 10, 4-Fluoro-α-[3-(4-pyridinylthio)propyl]benzenemethanamine Dihydrochloride], for which the inhibition in vivo was 24%.
For `CCCCCCCCNCCC(N)c1ccc(F)cc1` (stereo not drawn) [Example 21, 4-Fluoro-α-[2-(octylamino)ethyl]benzenemethanamine Dihydrochloride], the inhibition in vivo is 68%.
The value for `COc1ccc(CNCCC(N)c2ccc(F)cc2)c2ccccc12` (stereo not drawn) [Example 22, 4-Fluoro-α-(2-[(4-methoxynaphthalenyl)methylamino]ethyl)benzenemethanamine Dihydrochloride] was 26%; that for `CCCCCCCNCCC(N)c1ccc(F)cc1` (stereo not drawn) [Example 26, 4-Fluoro-α-[2-heptylamino)ethyl]benzenemethanamine Dihydrochloride] was 52%; that for `CCCCCCCCCCCNCCC(N)c1ccc(F)cc1` (stereo not drawn) [Example 27, 4-Fluoro-α-[2-undecylamino)ethyl]benzenemethanamine Dihydrochloride] was 51%.
As for `CCCCCCNCCC(N)c1ccc(F)cc1` (stereo not drawn) [Example 28, 4-Fluoro-α-[2-(hexylamino)ethyl]benzenemethanamine Dihydrochloride], the inhibition in vivo is 51%.
Then `CC1(C)C2CCC(CNCCC(N)c3ccc(F)cc3)C1C2` (stereo not drawn) [Example 30, α-[2-(7,7-Dimethylbicyclo[3,1,1]heptyl-2-methylamino)ethyl]-4-fluoro-benzenemethanamine Dihydrochloride], with 34%.
Take `CC(C)(C)CC(C)(C)NCCC(N)c1ccc(F)cc1` (stereo not drawn) [Example 34, 4-Fluoro-α-[2-(1,1,3,3-tetramethylbutyl)aminoethyl]benzenemethanamineDihydrochloride]: the inhibition in vivo is 22%.
On to `CC(NCCC(N)c1ccc(Cl)cc1)C12CC3CC(CC(C3)C1)C2` (stereo not drawn) [Example 36, 4-Chloro-α-(2-[1-(3-adamantyl)ethylamino]ethyl)benzenemethanamine Dihydrochloride], for which the inhibition in vivo was 48%.
The value for `NC(CCCSc1ccccc1)c1ccc(F)cc1` (stereo not drawn) [Example 38, 4-Fluoro-α-(3-phenylthiopropyl)benzenemethanamine Hydrochloride] was 30%.
As to `CC(NCCC(N)c1ccc(F)cc1)C12CC3CC(CC(C3)C1)C2` (stereo not drawn) [Example 39, 4-Fluoro-α-(2-[1-(3-adamantyl)ethylamino]ethyl)benzenemethanamine Dihydrochloride], the inhibition in vivo came out at 50%.
The value for `NC(CCNCCc1cccc2ccccc12)c1ccc(F)cc1` (stereo not drawn) [Example 40, 4-Fluoro-α-(2-[2-(1-naphthalenyl)ethylamino]ethyl)benzenemethanamine Dihydrochloride] was 29%.
With `CCCCCCCCCCCCCCCCCCNCCC(N)c1ccc(F)cc1` (stereo not drawn) [Example 42, 4-Fluoro-α-[2-(octadecylamino)ethyl]benzenemethanamine Dihydrochloride], the inhibition in vivo was determined as 22%.
`NC(CCCSc1ccc(F)cc1)c1ccc(F)cc1` (stereo not drawn) [Example 44, 4-Fluoro-α-[3-(4-Fluorophenylthio)propyl]benzenemethanamine Hydrochloride]: the inhibition in vivo is 25%.
As for `CC(C)c1ccc2c(c1)CCC1C(C)(CNCCC(N)c3ccccc3)CCCC21C` (stereo not shown) [Example 56, Dihydrochloride], the inhibition in vivo is 64%.
Regarding `COc1ccc(C(N)CCNCC2(C)CCCC3(C)c4ccc(C(C)C)cc4CCC23)cc1` (stereo not drawn) [Example 57, α-(2-[1,4a-Dimethyl-7-(2-propyl)-1,2,3,4,4a,9,10,10a-octahydro-1-phenanthrenylmethylamino]ethyl)-4-methoxybenzenemethanamine Dihydrochloride], the inhibition in vivo stood at 60%.
Regarding `CCCCCCC(C)OCCCC(N)c1ccc(F)cc1` (stereo not drawn) [Example 61, 4-Fluoro-α-[3-(2-octyloxy)propyl]benzenemethanamine], the inhibition in vivo was 25%.
